Results: ChEMBL document CHEMBL4507260 (2021)

Tests used:
Conditions in all cases: Compound concentration 1000.0 nM
[1] = tested on: Tyrosine-protein kinase ABL1 (Homo sapiens), P00519 [F317L]
[2] = tested on: Tyrosine-protein kinase ABL1 (Homo sapiens), P00519 [M351T]
[3] = biological target: Aurora kinase B (Homo sapiens) (UniProt Q96GD4)
[4] = biological target: Cyclin-dependent kinase 19 (Homo sapiens) (UniProt Q9BWU1)
[5] = biological target: Cyclin-dependent kinase 9 (Homo sapiens) (UniProt P50750)
Sequence of Cyclin-dependent kinase 9 (Homo sapiens) (P50750 whole entry): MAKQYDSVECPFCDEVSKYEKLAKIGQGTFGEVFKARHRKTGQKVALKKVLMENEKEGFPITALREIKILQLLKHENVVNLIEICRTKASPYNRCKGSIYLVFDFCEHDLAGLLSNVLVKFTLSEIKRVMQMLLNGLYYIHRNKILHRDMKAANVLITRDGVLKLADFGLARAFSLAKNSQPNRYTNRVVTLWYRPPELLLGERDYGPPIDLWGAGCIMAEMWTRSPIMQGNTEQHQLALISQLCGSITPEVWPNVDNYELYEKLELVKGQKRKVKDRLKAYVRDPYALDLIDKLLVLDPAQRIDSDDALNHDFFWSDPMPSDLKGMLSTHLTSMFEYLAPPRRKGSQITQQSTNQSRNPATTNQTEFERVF

[6] = biological target: Serine/threonine-protein kinase MRCK gamma (Homo sapiens) (UniProt Q6DT37)
[7] = biological target: Dual specificity tyrosine-phosphorylation-regulated kinase 1B (Homo sapiens) (UniProt Q9Y463)
[8] = tested on: Epidermal growth factor receptor (Homo sapiens), P00533 [G719S]
[9] = tested on: Epidermal growth factor receptor (Homo sapiens), P00533 [T790M]
[10] = biological target: Ephrin type-B receptor 1 (Homo sapiens) (UniProt P54762)
[11] = biological target: Receptor tyrosine-protein kinase erbB-3 (Homo sapiens) (UniProt P21860)
[12] = biological target: Mitogen-activated protein kinase 1 (Homo sapiens) (UniProt P28482)
[13] = tested on: Receptor-type tyrosine-protein kinase FLT3 (Homo sapiens), P36888 [R834Q]
[14] = biological target: Homeodomain-interacting protein kinase 2 (Homo sapiens) (UniProt Q9H2X6)
[15] = biological target: Hormonally up-regulated neu tumor-associated kinase (Homo sapiens) (UniProt P57058)
[16] = biological target: Inhibitor of nuclear factor kappa-B kinase subunit alpha (Homo sapiens) (UniProt O15111)
[17] = biological target: Insulin receptor (Homo sapiens) (UniProt P06213)
[18] = biological target: Tyrosine-protein kinase JAK3 (Homo sapiens) (UniProt P52333)
[19] = biological target: Serine/threonine-protein kinase LATS1 (Homo sapiens) (UniProt O95835)
[20] = biological target: LIM domain kinase 2 (Homo sapiens) (UniProt P53671)
[21] = biological target: Serine/threonine-protein kinase MAK (Homo sapiens) (UniProt P20794)
[22] = biological target: MAP kinase-activated protein kinase 2 (Homo sapiens) (UniProt P49137)
[23] = biological target: Dual specificity mitogen-activated protein kinase kinase 6 (Homo sapiens) (UniProt P52564)
Sequence of Dual specificity mitogen-activated protein kinase kinase 6 (Homo sapiens) (P52564 whole entry): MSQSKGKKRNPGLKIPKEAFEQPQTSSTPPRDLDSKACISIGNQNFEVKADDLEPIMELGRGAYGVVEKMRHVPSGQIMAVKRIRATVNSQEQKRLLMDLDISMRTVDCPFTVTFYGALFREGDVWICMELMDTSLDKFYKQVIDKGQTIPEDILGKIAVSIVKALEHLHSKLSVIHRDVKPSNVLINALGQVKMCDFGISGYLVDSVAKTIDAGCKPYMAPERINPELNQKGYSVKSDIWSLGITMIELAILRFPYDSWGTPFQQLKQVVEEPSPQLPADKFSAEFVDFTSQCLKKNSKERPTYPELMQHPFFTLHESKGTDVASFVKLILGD

[24] = biological target: MAP kinase-interacting serine/threonine-protein kinase 2 (Homo sapiens) (UniProt Q9HBH9)
[25] = biological target: Mitogen-activated protein kinase kinase kinase 11 (Homo sapiens) (UniProt Q16584)
[26] = biological target: Myosin-IIIa (Homo sapiens) (UniProt Q8NEV4)
[27] = biological target: Serine/threonine-protein kinase Nek10 (Homo sapiens) (UniProt Q6ZWH5)
Sequence of Serine/threonine-protein kinase Nek10 (Homo sapiens) (Q6ZWH5 whole entry): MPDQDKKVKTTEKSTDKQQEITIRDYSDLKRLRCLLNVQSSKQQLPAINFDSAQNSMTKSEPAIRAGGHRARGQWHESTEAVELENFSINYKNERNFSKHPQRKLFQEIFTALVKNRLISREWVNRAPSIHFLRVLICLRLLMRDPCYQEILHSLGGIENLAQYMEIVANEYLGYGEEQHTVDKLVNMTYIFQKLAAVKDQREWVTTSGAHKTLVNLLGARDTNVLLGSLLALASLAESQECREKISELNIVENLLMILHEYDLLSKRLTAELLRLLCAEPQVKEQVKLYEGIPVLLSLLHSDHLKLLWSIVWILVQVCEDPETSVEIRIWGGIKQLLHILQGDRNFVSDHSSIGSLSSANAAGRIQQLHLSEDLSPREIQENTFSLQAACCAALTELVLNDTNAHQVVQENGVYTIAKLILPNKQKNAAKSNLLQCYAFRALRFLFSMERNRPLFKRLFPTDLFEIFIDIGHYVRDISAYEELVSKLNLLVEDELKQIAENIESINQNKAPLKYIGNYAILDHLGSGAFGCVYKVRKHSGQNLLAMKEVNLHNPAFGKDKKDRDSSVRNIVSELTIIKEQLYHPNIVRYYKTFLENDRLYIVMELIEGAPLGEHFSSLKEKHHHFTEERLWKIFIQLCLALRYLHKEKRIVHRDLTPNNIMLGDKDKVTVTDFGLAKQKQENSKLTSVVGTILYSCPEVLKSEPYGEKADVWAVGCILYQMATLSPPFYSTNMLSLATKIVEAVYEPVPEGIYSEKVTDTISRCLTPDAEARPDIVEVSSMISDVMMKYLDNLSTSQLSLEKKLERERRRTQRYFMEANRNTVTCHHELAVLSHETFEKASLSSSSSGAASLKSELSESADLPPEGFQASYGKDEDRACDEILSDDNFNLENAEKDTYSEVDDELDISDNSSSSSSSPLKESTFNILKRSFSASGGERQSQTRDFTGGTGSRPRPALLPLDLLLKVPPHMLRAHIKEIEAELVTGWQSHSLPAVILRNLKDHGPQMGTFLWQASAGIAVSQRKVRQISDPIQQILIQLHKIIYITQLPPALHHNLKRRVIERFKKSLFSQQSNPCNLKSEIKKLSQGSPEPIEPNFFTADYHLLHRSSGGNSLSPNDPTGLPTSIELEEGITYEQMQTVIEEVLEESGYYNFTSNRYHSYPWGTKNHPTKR

[28] = biological target: Serine/threonine-protein kinase Nek6 (Homo sapiens) (UniProt Q9HC98)
Sequence of Serine/threonine-protein kinase Nek6 (Homo sapiens) (Q9HC98 whole entry): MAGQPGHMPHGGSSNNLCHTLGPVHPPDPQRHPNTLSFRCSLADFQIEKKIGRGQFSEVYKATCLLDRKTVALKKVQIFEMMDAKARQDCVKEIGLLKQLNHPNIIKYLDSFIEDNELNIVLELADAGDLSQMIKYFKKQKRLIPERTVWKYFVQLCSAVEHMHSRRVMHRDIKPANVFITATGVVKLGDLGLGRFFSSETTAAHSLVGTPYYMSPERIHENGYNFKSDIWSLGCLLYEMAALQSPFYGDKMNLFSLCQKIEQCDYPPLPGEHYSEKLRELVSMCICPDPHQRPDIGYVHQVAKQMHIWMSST

[29] = biological target: Serine/threonine-protein kinase OSR1 (Homo sapiens) (UniProt O95747)
[30] = biological target: Serine/threonine-protein kinase PAK 3 (Homo sapiens) (UniProt O75914)
[31] = biological target: 3-phosphoinositide-dependent protein kinase 1 (Homo sapiens) (UniProt O15530)
[32] = biological target: Cyclin-dependent kinase 15 (Homo sapiens) (UniProt Q96Q40)
[33] = tested on: Phosphatidylinositol 4,5-bisphosphate 3-kinase catalytic subunit alpha isoform (Homo sapiens), P42336 [H1047Y]
[34] = biological target: Phosphatidylinositol 4-phosphate 5-kinase type-1 gamma (Homo sapiens) (UniProt O60331)
[35] = biological target: cAMP-dependent protein kinase catalytic subunit beta (Homo sapiens) (UniProt P22694)
[36] = biological target: Serine/threonine-protein kinase PRP4 homolog (Homo sapiens) (UniProt Q13523)
[37] = biological target: Proto-oncogene tyrosine-protein kinase receptor Ret (Homo sapiens) (UniProt P07949)
Sequence of Proto-oncogene tyrosine-protein kinase receptor Ret (Homo sapiens) (P07949 whole entry): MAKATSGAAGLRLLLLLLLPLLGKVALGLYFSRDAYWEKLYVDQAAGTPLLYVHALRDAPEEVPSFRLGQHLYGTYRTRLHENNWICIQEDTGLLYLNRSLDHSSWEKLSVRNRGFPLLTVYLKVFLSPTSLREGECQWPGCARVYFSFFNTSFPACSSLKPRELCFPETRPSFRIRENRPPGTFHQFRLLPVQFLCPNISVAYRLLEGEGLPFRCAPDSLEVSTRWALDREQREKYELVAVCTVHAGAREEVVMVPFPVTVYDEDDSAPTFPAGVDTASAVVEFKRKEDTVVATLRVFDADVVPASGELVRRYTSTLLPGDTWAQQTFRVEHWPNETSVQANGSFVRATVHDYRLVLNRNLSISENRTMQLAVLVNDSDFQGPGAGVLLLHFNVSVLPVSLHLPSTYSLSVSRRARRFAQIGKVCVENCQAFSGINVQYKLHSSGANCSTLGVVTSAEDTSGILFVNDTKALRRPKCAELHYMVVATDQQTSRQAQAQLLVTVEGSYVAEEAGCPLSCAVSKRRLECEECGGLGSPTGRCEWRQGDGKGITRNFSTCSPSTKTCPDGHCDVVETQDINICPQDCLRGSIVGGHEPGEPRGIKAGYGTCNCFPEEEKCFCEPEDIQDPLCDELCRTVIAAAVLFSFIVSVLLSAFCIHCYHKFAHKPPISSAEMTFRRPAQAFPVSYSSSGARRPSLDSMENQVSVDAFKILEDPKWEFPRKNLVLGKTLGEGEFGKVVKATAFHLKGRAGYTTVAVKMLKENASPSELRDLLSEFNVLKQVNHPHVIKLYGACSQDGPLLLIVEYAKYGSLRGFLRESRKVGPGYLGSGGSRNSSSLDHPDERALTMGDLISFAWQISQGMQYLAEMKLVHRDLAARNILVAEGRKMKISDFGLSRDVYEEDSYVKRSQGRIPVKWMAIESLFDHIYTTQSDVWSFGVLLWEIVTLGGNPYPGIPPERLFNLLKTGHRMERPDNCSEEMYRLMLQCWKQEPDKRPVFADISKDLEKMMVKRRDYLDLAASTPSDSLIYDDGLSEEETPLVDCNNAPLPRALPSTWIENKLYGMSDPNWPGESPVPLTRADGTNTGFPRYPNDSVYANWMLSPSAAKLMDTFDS

[38] = biological target: Ribosomal protein S6 kinase beta-1 (Homo sapiens) (UniProt P23443)
Sequence of Ribosomal protein S6 kinase beta-1 (Homo sapiens) (P23443 whole entry, looked up): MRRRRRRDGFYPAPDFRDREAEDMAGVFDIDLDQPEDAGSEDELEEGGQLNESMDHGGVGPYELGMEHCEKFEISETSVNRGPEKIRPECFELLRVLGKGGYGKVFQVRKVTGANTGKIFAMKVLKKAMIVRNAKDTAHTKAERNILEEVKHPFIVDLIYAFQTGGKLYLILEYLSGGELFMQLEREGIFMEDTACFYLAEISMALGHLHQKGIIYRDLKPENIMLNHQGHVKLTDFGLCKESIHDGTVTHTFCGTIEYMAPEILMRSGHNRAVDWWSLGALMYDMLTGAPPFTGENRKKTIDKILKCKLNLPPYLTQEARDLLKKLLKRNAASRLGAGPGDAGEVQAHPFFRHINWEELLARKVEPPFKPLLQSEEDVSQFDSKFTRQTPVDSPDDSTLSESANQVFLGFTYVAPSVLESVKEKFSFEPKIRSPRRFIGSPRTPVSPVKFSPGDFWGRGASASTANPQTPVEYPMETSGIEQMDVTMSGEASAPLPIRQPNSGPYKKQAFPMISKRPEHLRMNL

[39] = biological target: STE20-like serine/threonine-protein kinase (Homo sapiens) (UniProt Q9H2G2)
[40] = biological target: NUAK family SNF1-like kinase 2 (Homo sapiens) (UniProt Q9H093)
[41] = biological target: SRSF protein kinase 3 (Homo sapiens) (UniProt Q9UPE1)
[42] = biological target: Serine/threonine-protein kinase TAO1 (Homo sapiens) (UniProt Q7L7X3)
[43] = biological target: Phosphatidylinositol 3-kinase catalytic subunit type 3 (Homo sapiens) (UniProt Q8NEB9)
Sequence of Phosphatidylinositol 3-kinase catalytic subunit type 3 (Homo sapiens) (Q8NEB9 whole entry): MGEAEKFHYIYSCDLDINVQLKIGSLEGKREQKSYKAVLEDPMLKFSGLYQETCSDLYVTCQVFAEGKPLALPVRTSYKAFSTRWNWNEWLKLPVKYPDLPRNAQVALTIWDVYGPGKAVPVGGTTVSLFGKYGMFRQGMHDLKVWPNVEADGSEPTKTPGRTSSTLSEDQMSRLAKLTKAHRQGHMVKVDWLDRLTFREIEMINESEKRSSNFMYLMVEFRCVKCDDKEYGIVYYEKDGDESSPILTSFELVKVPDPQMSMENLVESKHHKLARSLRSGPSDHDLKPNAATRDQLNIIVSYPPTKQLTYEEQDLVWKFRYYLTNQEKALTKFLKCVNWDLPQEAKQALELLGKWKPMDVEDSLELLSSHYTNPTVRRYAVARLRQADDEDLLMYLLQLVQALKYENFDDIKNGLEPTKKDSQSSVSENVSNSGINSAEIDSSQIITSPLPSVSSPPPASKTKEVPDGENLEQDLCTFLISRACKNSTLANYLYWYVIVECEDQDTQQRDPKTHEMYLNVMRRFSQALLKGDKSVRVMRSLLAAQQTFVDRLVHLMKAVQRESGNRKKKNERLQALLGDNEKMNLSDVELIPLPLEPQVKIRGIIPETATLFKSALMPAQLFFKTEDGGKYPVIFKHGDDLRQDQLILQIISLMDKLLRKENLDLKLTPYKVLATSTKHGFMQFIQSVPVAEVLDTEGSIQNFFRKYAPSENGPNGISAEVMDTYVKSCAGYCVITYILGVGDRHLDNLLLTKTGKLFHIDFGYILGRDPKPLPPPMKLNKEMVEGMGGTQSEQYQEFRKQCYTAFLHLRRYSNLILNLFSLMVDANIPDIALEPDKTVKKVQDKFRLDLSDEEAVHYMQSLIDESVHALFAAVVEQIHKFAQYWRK

[44] = biological target: Serine/threonine-protein kinase WNK3 (Homo sapiens) (UniProt Q9BYP7)
[45] = biological target: Serine/threonine-protein kinase 32B (Homo sapiens) (UniProt Q9NY57)

Measured: residual activity

c1ccc(N2CCN(Cc3nc4ccccc4[nH]3)CC2)nc1 [ABT-724]
inactive: [1] 100% | [2] 100% | [4] 87% | [5] 100% | [6] 100% | [7] 100% | [8] 91% | [9] 99% | [10] 100% | [11] 91% | [12] 100% | [13] 100% | [15] 100% | [16] 100% | [17] 100% | [18] 100% | [19] 100% | [20] 100% | [21] 100% | [22] 100% | [23] 100% | [24] 100% | [25] 100% | [26] 100% | [27] 100% | [28] 100% | [29] 100% | [30] 100% | [31] 89% | [32] 95% | [33] 79% | [34] 93% | [35] 93% | [36] 57% | [37] 100% | [38] 97% | [39] 93% | [40] 100% | [41] 100% | [42] 100% | [43] 100% | [44] 100% | [45] 100%
active: [3] 18% | [14] 26%

CSc1cccnc1N1CCN(Cc2nc3ccccc3[nH]2)CC1 [A-769]
inactive: [1] 100% | [2] 94% | [3] 67% | [4] 96% | [5] 97% | [6] 100% | [7] 91% | [8] 98% | [9] 85% | [10] 99% | [11] 90% | [12] 93% | [13] 100% | [14] 62% | [15] 100% | [16] 98% | [17] 85% | [18] 100% | [19] 100% | [20] 100% | [21] 100% | [22] 80% | [23] 100% | [24] 75% | [25] 100% | [26] 100% | [27] 78% | [28] 98% | [29] 78% | [30] 87% | [31] 99% | [32] 100% | [33] 100% | [34] 100% | [35] 100% | [36] 100% | [37] 94% | [38] 87% | [39] 100% | [40] 100% | [41] 100% | [42] 100% | [43] 94% | [44] 100% | [45] 100%
